# Columns and labels:
# [1] = tested on: Hep-3B cells; assay: Cellular assay: erythropoietin secretion in Hep-3B cells; format: cell-based, human; details: 100 μM compound, 24 hours, percent of EPO secretion relative to assay control compound 7-[(4-Chloro-phenyl)-(5-methyl-isoxazol-3-ylamino)-methyl]-quinolin-8-ol; for Emax at 100 µM: Homo sapiens, Hep3B, read-out: Cellular % EPO Stimulation
# Protocol: Hep-3B cells (ATCC, Manassas, Va.) were plated in 96-well plates at 20,000 cells per well in 100 μl of DMEM containing 10% fetal bovine serum, 1% non-essential amino acids, 50 IU/mL of penicillin and 50 μg/mL of streptomycin (all cell culture reagents from Invitrogen, Carlsbad, Calif.). Twenty-four hours after plating, compounds were added and incubated for an additional 24 hours. All compounds were tested under saturating conditions with final compound concentrations at 100 μM. Fifty microliters of the supernatant was then transferred to a human Hypoxia assay kit (Meso-Scale Discovery, Gaithersburg, Md.). Erythropoietin in the supernatant was detected according to the manufacturer's instructions as follows. EPO detection plates were blocked with 3% BSA in PBS overnight and 50 μl of the supernatant was incubated at room temperature in an orbital shaker for 2 h. Twenty-five microliters of 0.5 μg/ml anti-EPO detection antibody was added for 2 hours at room temperature in an orbital shaker. After 3 washes in PBS, 150 μl of 1× read buffer is added and the plate is then read on the MSD SECTOR instrument.
# [2] = target: T1, human PHD2 (PHD2181-417) (Homo sapiens, UniProt Q9GZT9); assay: PHD enzymatic assay ([14C]-succinic acid production); format: biochemical; details: PHD2181-417, HIF-1α peptide 10 μM, average of results; for IC50: read-out: Enzyme pIC50 (converted)
# T1 construct: Smt (SUMO) tag (cleaved yes); made in house; host or cells: E. coli BL21 (pBAD vector)
# T1 sequence (Q9GZT9 181-417): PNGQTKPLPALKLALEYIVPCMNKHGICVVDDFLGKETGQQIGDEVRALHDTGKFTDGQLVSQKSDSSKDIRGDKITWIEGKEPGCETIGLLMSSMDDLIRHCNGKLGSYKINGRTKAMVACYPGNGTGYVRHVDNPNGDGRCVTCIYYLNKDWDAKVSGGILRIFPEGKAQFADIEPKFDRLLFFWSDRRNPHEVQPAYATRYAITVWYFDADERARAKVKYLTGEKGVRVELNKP
# Protocol: Protein production was achieved by expression in BL21 cells grown in Terrific Broth containing 100 μg/ml ampicillin. Cell cultures were inoculated at 37° C. and grown to an OD600 of 0.8. Cultures were induced with 0.1% arabinose and grown overnight at 20° C. with continuous shaking at 225 rpm. Cells were then harvested by centrifugation and stored at −80° C. Cell pellets were suspended in Buffer A (50 mM Tris-HCl pH 7.2, 100 mM NaCl, 100 mM L-arginine, 1 mM TCEP, 0.05% (w/v) NP-40, 50 mM imidazole) followed by the addition of lysozyme and benzonase. Cells were lysed by sonication and the lysate was cleared by centrifugation (15,000 rpm, 90 min, 4° C.). The protein was purified by nickel affinity chromatography using a HisTrap Crude FF column (GE Healthcare). Samples were eluted in Buffer A with a 50-200 mM imidazole gradient. […] The flow-through was then dialyzed into 50 mM MES pH 6.0, 1 mM TCEP, 5 mM NaCl for ion exchange chromatography on a HiTrap SP Cation Exchange column (GE Healthcare). […] Fractions were pooled for further purification by size exclusion chromatography over a Superdex 75 Size Exclusion Column (GE Healthcare). Final protein was concentrated to 4 mg/ml and dialyzed in 10 mM PIPES pH 7.0, 100 mM NaCl, 0.5 mM TCEP.
# (10 μM, California Peptide Research Inc., Napa, Calif.), and [5-^14C]-2-oxoglutaric acid (50 mCi/mmol, Moravek Chemicals, Brea, Calif.) in reaction buffer (40 mM Tris-HCl, pH 7.5, 0.4 mg/ml catalase, 0.5 mM DTT, 1 mM ascorbate) for 10 minutes. The reaction was stopped by addition of 50 μl of 70 mM H3PO4 and 50 μl of 500 mM NaH2PO4, pH3.2. Detection of [^14C]-succinic acid was achieved by separating from [5-^14C]-2-oxoglutaric acid by incubating the reaction mixture with 100 μl of 0.16 M DNP prepared in 30% perchloric acid. Next, 50 μl of unlabeled 20 mM 2-oxoglutaric acid/20 mM succinic acid, serving as carrier for the radioactivity, was added to the mixture, and was allowed to proceed for 30 minutes at room temperature. The reaction was then incubated with 50 μl of 1 M 2-oxoglutaric acid for 30 additional minutes at room temperature to precipitate the excess DNP. The reaction was then centrifuged at 2800×g for 10 minutes at room temperature to separate [^14C]-succinic acid in the supernatant from the precipitated [^14C]-dinitrophenylhydrazone. Fractions of the supernatant (400 μl) were counted using a beta counter (Beckman Coulter, Fullerton, Calif.).
Structure (SMILES),Cellular % EPO Stimulation [1] [%],Enzyme pIC50 [2],Emax at 100 µM [1] [%],IC50 [2] [nM]
"NC(CO)(CO)CO.O=C(O)c1cnn(-c2nc3cc(C4CCOCC4)ccc3c(=O)[nH]2)c1 [Example 67, 1-[4-Oxo-7-(tetrahydro-pyran-4-yl)-3,4-dihydro-quinazolin-2-yl]-1H-pyrazole-4-carboxylic acid tris(hydroxymethyl)aminomethane salt]",18,7.8,–,–
"O=C(O)c1cnn(-c2nc3cc(Cl)c(OC(F)(F)F)cc3c(=O)[nH]2)c1 [Example 22, 1-(7-Chloro-4-oxo-6-trifluoromethoxy-3,4-dihydro-quinazolin-2-yl)-1H-pyrazole-4-carboxylic acid]",–,–,61,31.6
"O=C(O)c1cnn(-c2nc3ccc(C(=O)N4CCCC4)cc3c(=O)[nH]2)c1 [Example 162, 1-[4-Oxo-6-(pyrrolidine-1-carbonyl)-3,4-dihydro-quinazolin-2-yl]-1H-pyrazole-4-carboxylic acid]",–,–,15,31.6
"CSc1ccc2nc(-n3cc(C(=O)O)cn3)[nH]c(=O)c2c1 [Example 155, 1-(6-Methylsulfanyl-4-oxo-3,4-dihydro-quinazolin-2-yl)-1H-pyrazole-4-carboxylic acid]",–,–,40,31.6
"O=C(O)c1cnn(-c2nc3ccc(Oc4c(Cl)cccc4Cl)cc3c(=O)[nH]2)c1 [Example 38, 1-[6-(2,6-Dichloro-phenoxy)-4-oxo-3,4-dihydro-quinazolin-2-yl]-1H-pyrazole-4-carboxylic acid]",–,–,91,20
"Cc1ccc(Oc2cc3c(=O)[nH]c(-n4cc(C(=O)O)cn4)nc3cc2F)cc1C [Example 88, 1-[6-(3,4-dimethyl-phenoxy)-7-fluoro-4-oxo-3,4-dihydro-quinazolin-2-yl]-1H-pyrazole-4-carboxylic acid]",–,–,95,15.8
"CC(C)(C)c1cccc2c(=O)[nH]c(-n3cc(C(=O)O)cn3)nc12 [Example 115, 1-(8-tert-Butyl-4-oxo-3,4-dihydro-quinazolin-2-yl)-1H-pyrazole-4-carboxylic acid]",–,–,27,158
"O=C(O)c1cnn(-c2nc3cc(Sc4ccc(Cl)cc4)ccc3c(=O)[nH]2)c1 [Example 79, 1-[7-(4-Chloro-phenylsulfanyl)-4-oxo-3,4-dihydro-quinazolin-2-yl]-1H-pyrazole-4-carboxylic acid]",–,–,6,39.8
"O=C(O)c1cnn(-c2nc3c(F)cccc3c(=O)[nH]2)c1 [Example 118, 1-(8-Fluoro-4-oxo-3,4-dihydro-quinazolin-2-yl)-1H-pyrazole-4-carboxylic acid]",–,–,16,79.4
"O=C(O)c1cnn(-c2nc3cc(Cl)c(SC(F)(F)F)cc3c(=O)[nH]2)c1 [Example 159, 1-(7-Chloro-4-oxo-6-trifluoromethylsulfanyl-3,4-dihydro-quinazolin-2-yl)-1H-pyrazole-4-carboxylic acid]",–,–,16,25.1
"O=C(O)c1cnn(-c2nc3ccc(S(=O)(=O)N4CCCC4)cc3c(=O)[nH]2)c1 [Example 161, 1-[4-Oxo-6-(pyrrolidine-1-sulfonyl)-3,4-dihydro-quinazolin-2-yl]-1H-pyrazole-4-carboxylic acid]",–,–,17,39.8
"COc1cccc(C2CCCN(c3cc4c(=O)[nH]c(-n5cc(C(=O)O)cn5)nc4cc3Cl)C2)c1 (racemic) [Example 86, (rac)-1-{7-Chloro-6-[3-(3-methoxy-phenyl)-piperidin-1-yl]-4-oxo-3,4-dihydro-quinazolin-2-yl}-1H-pyrazole-4-carboxylic acid]",–,–,71,25.1
"N#Cc1ccccc1CNc1ccc2nc(-n3cc(C(=O)O)cn3)[nH]c(=O)c2c1 [Example 177, 1-[6-(2-Cyano-benzylamino)-4-oxo-3,4-dihydro-quinazolin-2-yl]-1H-pyrazole-4-carboxylic acid]",–,–,13,50.1
"Cc1cccc2c(=O)[nH]c(-n3cc(C(=O)O)cn3)nc12 [Example 9, 1-(8-Methyl-4-oxo-3,4-dihydro-quinazolin-2-yl)-1H-pyrazole-4-carboxylic acid]",–,–,49,79.4
"COc1ccc(Sc2cc3c(=O)nc(-n4cc(C(=O)O)cn4)[nH]c3cc2Cl)cc1OC [Example 26, 1-[7-Chloro-6-(3,4-dimethoxy-phenylsulfanyl)-4-oxo-1,4-dihydro-quinazolin-2-yl]-1H-pyrazole-4-carboxylic acid]",–,–,55,31.6
"O=C(O)c1cnn(-c2nc3cc4c(cc3c(=O)[nH]2)CCC4)c1 [Example 140, 1-(4-Oxo-4,6,7,8-tetrahydro-3H-cyclopenta[g]quinazolin-2-yl)-1H-pyrazole-4-carboxylic acid]",–,–,62,35.5
"O=C(O)c1cnn(-c2nc3cc(-c4ccccc4Cl)ccc3c(=O)[nH]2)c1 [Example 185, 1-[7-(2-Chloro-phenyl)-4-oxo-3,4-dihydro-quinazolin-2-yl]-1H-pyrazole-4-carboxylic acid]",–,–,15,100
"O=C(O)c1cnn(-c2nc(=O)c3cc(Sc4ccccc4)c(Cl)cc3[nH]2)c1 [Example 25, 1-(7-Chloro-4-oxo-6-phenylsulfanyl-1,4-dihydro-quinazolin-2-yl)-1H-pyrazole-4-carboxylic acid]",–,–,68,39.8
"COc1ccc(-c2ccc3nc(-n4cc(C(=O)O)cn4)[nH]c(=O)c3c2)cc1 [Example 200, 1-[6-(4-Methoxy-phenyl)-4-oxo-3,4-dihydro-quinazolin-2-yl]-1H-pyrazole-4-carboxylic acid]",–,–,118,15.8
"O=C(O)c1cnn(-c2nc3ccc(Br)cc3c(=O)[nH]2)c1 [Example 13, 1-(6-Bromo-4-oxo-3,4-dihydro-quinazolin-2-yl)-1H-pyrazole-4-carboxylic acid]",–,–,35,63.1
"O=C(O)c1cnn(-c2nc3cc(I)ccc3c(=O)[nH]2)c1 [Example 208, 1-(7-Iodo-4-oxo-3,4-dihydro-quinazolin-2-yl)-1H-pyrazole-4-carboxylic acid]",–,–,20,126
"CN(C)c1ccc2nc(-n3cc(C(=O)O)cn3)[nH]c(=O)c2c1 [Example 125, 1-(6-Dimethylamino-4-oxo-3,4-dihydro-quinazolin-2-yl)-1H-pyrazole-4-carboxylic acid]",–,–,19,50.1
"CCNc1ccc2nc(-n3cc(C(=O)O)cn3)[nH]c(=O)c2c1 [Example 172, 1-(6-Ethylamino-4-oxo-3,4-dihydro-quinazolin-2-yl)-1H-pyrazole-4-carboxylic acid]",–,–,20,25.1
"CCOc1ccc2c(=O)[nH]c(-n3cc(C(=O)O)cn3)nc2c1 [Example 152, 1-(7-Ethoxy-4-oxo-3,4-dihydro-quinazolin-2-yl)-1H-pyrazole-4-carboxylic acid]",–,–,38,158

# Reference: patent publication US8937078B2, “Quinazolinones as prolyl hydroxylase inhibitors” (Janssen Pharmaceutica NV, priority 2009, dated 2015)
